Data from the NIST ThermoML archive (doi:10.1016/j.jct.2015.01.004).
“And” between values parts separate entries of the source, which are not always exact repeats. Identical values can stand only once.

Assay: molar heat capacity at constant pressure; xn = mol fraction of the nth substance listed
Conditions: 100 kPa

[Si] [silicon] + [Li]
Conditions | molar heat capacity at constant pressure
298.15 K, Crystal of intercomponent compound 2, relaxation calorimetry + DSC, x2 = 0.804 | 22.75 J/K/mol
298.32 K, Crystal of intercomponent compound 1, relaxation calorimetry, x2 = 0.81 | 21.66 J/K/mol
298.33 K, Crystal of intercomponent compound 2, relaxation calorimeter, x2 = 0.804 | 22.58 J/K/mol
300 K, Crystal of intercomponent compound 1, relaxation calorimetry + DSC, x2 = 0.81 | 22.58 J/K/mol
300 K, Crystal of intercomponent compound 2, relaxation calorimetry + DSC, x2 = 0.804 | 22.79 J/K/mol
302.31 K, Crystal of intercomponent compound 1, relaxation calorimetry, x2 = 0.81 | 21.75 J/K/mol
302.34 K, Crystal of intercomponent compound 2, relaxation calorimeter, x2 = 0.804 | 22.69 J/K/mol
304.67 K, Crystal of intercomponent compound 2, Small sample (50 mg) DSC, x2 = 0.804 | 23.11 J/K/mol and 23.16 J/K/mol
304.7 K, Crystal of intercomponent compound 1, Small sample (50 mg) DSC, x2 = 0.81 | 22.87 J/K/mol and 22.84 J/K/mol
304.7 K, Crystal of intercomponent compound 2, Small sample (50 mg) DSC, x2 = 0.804 | 23.05 J/K/mol
304.87 K, Crystal of intercomponent compound 1, Small sample (50 mg) DSC, x2 = 0.81 | 22.81 J/K/mol
304.88 K, Crystal of intercomponent compound 1, Small sample (50 mg) DSC, x2 = 0.81 | 22.77 J/K/mol
314.59 K, Crystal of intercomponent compound 2, Small sample (50 mg) DSC, x2 = 0.804 | 23.41 J/K/mol and 23.55 J/K/mol
314.61 K, Crystal of intercomponent compound 1, Small sample (50 mg) DSC, x2 = 0.81 | 23.01 J/K/mol and 23.1 J/K/mol
314.61 K, Crystal of intercomponent compound 2, Small sample (50 mg) DSC, x2 = 0.804 | 23.42 J/K/mol
314.8 K, Crystal of intercomponent compound 1, Small sample (50 mg) DSC, x2 = 0.81 | 22.99 J/K/mol
314.81 K, Crystal of intercomponent compound 1, Small sample (50 mg) DSC, x2 = 0.81 | 22.91 J/K/mol
320 K, Crystal of intercomponent compound 1, relaxation calorimetry + DSC, x2 = 0.81 | 23.07 J/K/mol
320 K, Crystal of intercomponent compound 2, relaxation calorimetry + DSC, x2 = 0.804 | 23.22 J/K/mol
324.51 K, Crystal of intercomponent compound 2, Small sample (50 mg) DSC, x2 = 0.804 | 23.8 J/K/mol and 23.85 J/K/mol
324.52 K, Crystal of intercomponent compound 1, Small sample (50 mg) DSC, x2 = 0.81 | 23.19 J/K/mol and 23.22 J/K/mol
324.52 K, Crystal of intercomponent compound 2, Small sample (50 mg) DSC, x2 = 0.804 | 23.8 J/K/mol
324.71 K, Crystal of intercomponent compound 1, Small sample (50 mg) DSC, x2 = 0.81 | 23.19 J/K/mol
324.72 K, Crystal of intercomponent compound 1, Small sample (50 mg) DSC, x2 = 0.81 | 23.11 J/K/mol
334.42 K, Crystal of intercomponent compound 2, Small sample (50 mg) DSC, x2 = 0.804 | 24.09 J/K/mol and 24.14 J/K/mol
334.43 K, Crystal of intercomponent compound 2, Small sample (50 mg) DSC, x2 = 0.804 | 24.12 J/K/mol
334.44 K, Crystal of intercomponent compound 1, Small sample (50 mg) DSC, x2 = 0.81 | 23.32 J/K/mol and 23.34 J/K/mol
334.63 K, Crystal of intercomponent compound 1, Small sample (50 mg) DSC, x2 = 0.81 | 23.4 J/K/mol
334.64 K, Crystal of intercomponent compound 1, Small sample (50 mg) DSC, x2 = 0.81 | 23.38 J/K/mol
340 K, Crystal of intercomponent compound 1, relaxation calorimetry + DSC, x2 = 0.81 | 23.51 J/K/mol
340 K, Crystal of intercomponent compound 2, relaxation calorimetry + DSC, x2 = 0.804 | 23.65 J/K/mol
344.33 K, Crystal of intercomponent compound 2, Small sample (50 mg) DSC, x2 = 0.804 | 24.3 J/K/mol and 24.38 J/K/mol
344.35 K, Crystal of intercomponent compound 1, Small sample (50 mg) DSC, x2 = 0.81 | 23.65 J/K/mol and 23.63 J/K/mol
344.35 K, Crystal of intercomponent compound 2, Small sample (50 mg) DSC, x2 = 0.804 | 24.37 J/K/mol
344.54 K, Crystal of intercomponent compound 1, Small sample (50 mg) DSC, x2 = 0.81 | 23.6 J/K/mol
344.55 K, Crystal of intercomponent compound 1, Small sample (50 mg) DSC, x2 = 0.81 | 23.53 J/K/mol
354.24 K, Crystal of intercomponent compound 2, Small sample (50 mg) DSC, x2 = 0.804 | 24.56 J/K/mol and 24.6 J/K/mol
354.26 K, Crystal of intercomponent compound 1, Small sample (50 mg) DSC, x2 = 0.81 | 23.98 J/K/mol and 23.97 J/K/mol
354.26 K, Crystal of intercomponent compound 2, Small sample (50 mg) DSC, x2 = 0.804 | 24.57 J/K/mol
354.45 K, Crystal of intercomponent compound 1, Small sample (50 mg) DSC, x2 = 0.81 | 23.8 J/K/mol
354.46 K, Crystal of intercomponent compound 1, Small sample (50 mg) DSC, x2 = 0.81 | 23.72 J/K/mol
360 K, Crystal of intercomponent compound 1, relaxation calorimetry + DSC, x2 = 0.81 | 23.91 J/K/mol
360 K, Crystal of intercomponent compound 2, relaxation calorimetry + DSC, x2 = 0.804 | 24.08 J/K/mol
364.16 K, Crystal of intercomponent compound 2, Small sample (50 mg) DSC, x2 = 0.804 | 24.81 J/K/mol and 24.83 J/K/mol
364.17 K, Crystal of intercomponent compound 1, Small sample (50 mg) DSC, x2 = 0.81 | 24.15 J/K/mol and 24.13 J/K/mol
364.17 K, Crystal of intercomponent compound 2, Small sample (50 mg) DSC, x2 = 0.804 | 24.69 J/K/mol
364.36 K, Crystal of intercomponent compound 1, Small sample (50 mg) DSC, x2 = 0.81 | 24.02 J/K/mol
364.37 K, Crystal of intercomponent compound 1, Small sample (50 mg) DSC, x2 = 0.81 | 23.91 J/K/mol
374.07 K, Crystal of intercomponent compound 2, Small sample (50 mg) DSC, x2 = 0.804 | 24.83 J/K/mol and 24.87 J/K/mol and 24.94 J/K/mol
374.08 K, Crystal of intercomponent compound 1, Small sample (50 mg) DSC, x2 = 0.81 | 24.33 J/K/mol and 24.27 J/K/mol
374.28 K, Crystal of intercomponent compound 1, Small sample (50 mg) DSC, x2 = 0.81 | 24.24 J/K/mol and 24.13 J/K/mol
380 K, Crystal of intercomponent compound 1, relaxation calorimetry + DSC, x2 = 0.81 | 24.29 J/K/mol
380 K, Crystal of intercomponent compound 2, relaxation calorimetry + DSC, x2 = 0.804 | 24.51 J/K/mol
383.99 K, Crystal of intercomponent compound 2, Small sample (50 mg) DSC, x2 = 0.804 | 25.05 J/K/mol
384.19 K, Crystal of intercomponent compound 1, Small sample (50 mg) DSC, x2 = 0.81 | 24.35 J/K/mol
384.2 K, Crystal of intercomponent compound 1, Small sample (50 mg) DSC, x2 = 0.81 | 24.46 J/K/mol
393.9 K, Crystal of intercomponent compound 2, Small sample (50 mg) DSC, x2 = 0.804 | 25.16 J/K/mol and 25.27 J/K/mol
394.11 K, Crystal of intercomponent compound 1, Small sample (50 mg) DSC, x2 = 0.81 | 24.46 J/K/mol
394.12 K, Crystal of intercomponent compound 1, Small sample (50 mg) DSC, x2 = 0.81 | 24.68 J/K/mol
400 K, Crystal of intercomponent compound 1, relaxation calorimetry + DSC, x2 = 0.81 | 24.63 J/K/mol
400 K, Crystal of intercomponent compound 2, relaxation calorimetry + DSC, x2 = 0.804 | 24.94 J/K/mol
403.81 K, Crystal of intercomponent compound 2, Small sample (50 mg) DSC, x2 = 0.804 | 25.3 J/K/mol and 25.35 J/K/mol
404.02 K, Crystal of intercomponent compound 1, Small sample (50 mg) DSC, x2 = 0.81 | 24.57 J/K/mol
404.03 K, Crystal of intercomponent compound 1, Small sample (50 mg) DSC, x2 = 0.81 | 25.01 J/K/mol
413.73 K, Crystal of intercomponent compound 2, Small sample (50 mg) DSC, x2 = 0.804 | 25.46 J/K/mol and 25.49 J/K/mol
413.94 K, Crystal of intercomponent compound 1, Small sample (50 mg) DSC, x2 = 0.81 | 24.68 J/K/mol and 25.12 J/K/mol
420 K, Crystal of intercomponent compound 1, relaxation calorimetry + DSC, x2 = 0.81 | 24.96 J/K/mol
420 K, Crystal of intercomponent compound 2, relaxation calorimetry + DSC, x2 = 0.804 | 25.37 J/K/mol
423.64 K, Crystal of intercomponent compound 2, Small sample (50 mg) DSC, x2 = 0.804 | 25.57 J/K/mol and 25.65 J/K/mol
423.85 K, Crystal of intercomponent compound 1, Small sample (50 mg) DSC, x2 = 0.81 | 24.68 J/K/mol
423.86 K, Crystal of intercomponent compound 1, Small sample (50 mg) DSC, x2 = 0.81 | 25.12 J/K/mol
433.56 K, Crystal of intercomponent compound 2, Small sample (50 mg) DSC, x2 = 0.804 | 25.68 J/K/mol and 25.75 J/K/mol
433.76 K, Crystal of intercomponent compound 1, Small sample (50 mg) DSC, x2 = 0.81 | 25.01 J/K/mol
433.77 K, Crystal of intercomponent compound 1, Small sample (50 mg) DSC, x2 = 0.81 | 25.23 J/K/mol
440 K, Crystal of intercomponent compound 1, relaxation calorimetry + DSC, x2 = 0.81 | 25.28 J/K/mol
440 K, Crystal of intercomponent compound 2, relaxation calorimetry + DSC, x2 = 0.804 | 25.8 J/K/mol
443.48 K, Crystal of intercomponent compound 2, Small sample (50 mg) DSC, x2 = 0.804 | 25.83 J/K/mol and 25.95 J/K/mol
443.67 K, Crystal of intercomponent compound 1, Small sample (50 mg) DSC, x2 = 0.81 | 25.01 J/K/mol
443.69 K, Crystal of intercomponent compound 1, Small sample (50 mg) DSC, x2 = 0.81 | 25.56 J/K/mol
453.39 K, Crystal of intercomponent compound 2, Small sample (50 mg) DSC, x2 = 0.804 | 25.96 J/K/mol and 26.21 J/K/mol
453.59 K, Crystal of intercomponent compound 1, Small sample (50 mg) DSC, x2 = 0.81 | 25.01 J/K/mol
